These results are taken from patent publication US10336775B2 (Asceneuron SA, priority 2014, dated 2019).

The first test deals with His-Tagged hOGA (human O-GlcNAcase) (Homo sapiens (Human), UniProt O60502). Description: Human O-GlcNAcase enzyme inhibition assay (Example B01). The test is classed as biochemical. The note with it: OGA IC50 (M), OGA enzyme inhibition assay; activity range classes defined in μM.
Chain of His-Tagged hOGA (human O-GlcNAcase) (O60502 whole entry): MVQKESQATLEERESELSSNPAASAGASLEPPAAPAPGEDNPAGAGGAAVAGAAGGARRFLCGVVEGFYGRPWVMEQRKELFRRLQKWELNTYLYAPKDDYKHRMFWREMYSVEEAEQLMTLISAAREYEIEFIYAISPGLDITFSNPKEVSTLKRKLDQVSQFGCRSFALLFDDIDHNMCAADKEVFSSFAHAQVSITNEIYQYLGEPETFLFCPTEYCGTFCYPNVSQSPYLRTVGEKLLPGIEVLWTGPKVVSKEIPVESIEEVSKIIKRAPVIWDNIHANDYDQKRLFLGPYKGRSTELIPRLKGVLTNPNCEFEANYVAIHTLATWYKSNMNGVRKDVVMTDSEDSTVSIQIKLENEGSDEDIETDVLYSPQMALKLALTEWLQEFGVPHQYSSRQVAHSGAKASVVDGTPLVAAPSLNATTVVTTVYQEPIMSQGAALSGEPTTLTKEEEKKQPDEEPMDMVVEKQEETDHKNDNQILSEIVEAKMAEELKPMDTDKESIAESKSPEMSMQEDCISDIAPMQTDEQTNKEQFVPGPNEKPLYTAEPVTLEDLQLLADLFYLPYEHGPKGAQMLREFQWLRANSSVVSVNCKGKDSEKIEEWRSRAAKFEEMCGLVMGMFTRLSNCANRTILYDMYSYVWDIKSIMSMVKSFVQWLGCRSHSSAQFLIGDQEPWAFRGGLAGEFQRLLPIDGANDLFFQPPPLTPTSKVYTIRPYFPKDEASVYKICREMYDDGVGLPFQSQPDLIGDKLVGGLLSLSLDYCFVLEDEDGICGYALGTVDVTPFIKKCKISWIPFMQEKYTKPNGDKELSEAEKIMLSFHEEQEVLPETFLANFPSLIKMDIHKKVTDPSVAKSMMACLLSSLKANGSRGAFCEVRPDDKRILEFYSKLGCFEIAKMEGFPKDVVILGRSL
The term IC50 denotes the concentration that gives 50% inhibition. `CC(c1ccc2cccnc2c1)N1CCN(c2ncccn2)CC1` (single isomer, unassigned) [Example 95, (S)-7-(1-(4-(pyrimidin-2-yl)piperazin-1-yl)ethyl)quinolone or (R)-7-(1-(4-(pyrimidin-2-yl)piperazin-1-yl)ethyl)quinoline] gave an IC50 of 5e-08 to 2e-07 M.

Regarding `Cc1csc(N2CCN(C(C)c3ccc4c(c3)OCO4)CC2)n1` (racemic) [Example 144, 1-[1-(1,3-benzodioxol-5-yl)ethyl]-4-(4-methyl-2-thiazolyl)-piperazine], the concentration for half-maximal inhibition (IC50) is 2e-07 to 1e-06 M. The same measure, in the same setting: with `CC(=O)Nc1cnc(N2CCN(C(C)c3ccc4c(c3)OCO4)CC2)nc1` (racemic) [Example 72, N-(2-(4-(1-(benzo[d][1,3]dioxol-5-yl)ethyl)piperazin-1-yl)pyrimidin-5-yl)acetamide] the figure was below 5e-08 M.

The same test, now with this note: OGA enzyme inhibition assay; activity range classes defined in μM; read-out: OGA IC50.
As to `CC(=O)Nc1cnc(N2CCN(C(C)c3ccc4c(c3)OCCCO4)CC2)nc1` (racemic) [Example 126, N-(2-(4-(1-(3,4-dihydro-2H-benzo[b][1,4]dioxepin-7-yl)ethyl)piperazin-1-yl)pyrimidin-5-yl)acetamide], the IC50 was in the range of 2e-07 to 1e-06 M. On the same count and under the same terms, next, `CC(=O)Nc1nnc(N2CCN(C(C)c3ccc4scnc4c3)CC2)s1` (racemic) [Example 114, N-(5-(4-(1-(benzo[d]thiazol-5-yl)ethyl)piperazin-1-yl)-1,3,4-thiadiazol-2-yl)acetamide]: below 5e-08 M; `C[C@@H](c1ccc2c(c1)OCO2)N1CCN(c2ncc(C3(O)CCOCC3)cn2)CC1` [Example 188, (S)-4-(2-(4-(1-(benzo[d][1,3]dioxol-5-yl)ethyl)piperazin-1-yl)pyrimidin-5-yl)tetrahydro-2H-pyran-4-ol]: below 5e-08 M; `C[C@@H](c1ccc2c(c1)OCO2)N1CCN(c2ncc(C(=O)N(C)C)cn2)CC1` [Example 137, (S)-2-(4-(1-(benzo[d][1,3]dioxol-5-yl)ethyl)piperazin-1-yl)-N,N-dimethylpyrimidine-5-carboxamide]: below 5e-08 M.

Take `CCCC(=O)Nc1nnc(N2CCN(C(C)c3ccc4c(c3)OCO4)CC2)s1` (racemic) [Example 106, N-(5-(4-(1-(benzo[d][1,3]dioxol-5-yl)ethyl)piperazin-1-yl)-1,3,4-thiadiazol-2-yl)butyramide]: the IC50 was below 5e-08 M. Same read-out and setting: next, `CC(=O)Nc1cnc(N2CCN(C(C)c3ccc4nccnc4c3)CC2)nc1` (racemic) [Example 93, N-(2-(4-(1-(quinoxalin-6-yl)ethyl)piperazin-1-yl)pyrimidin-5-yl)acetamide]: below 5e-08 M; `CC(c1ccc2c(c1)OCCO2)N1CCN(c2nc(C(N)=O)cs2)CC1` (racemic) [Example 49, 2-(4-(1-(2,3-Dihydrobenzo[b][1,4]dioxin-6-yl)ethyl)piperazin-1-yl)thiazole-4-carboxamide]: 2e-07 to 1e-06 M. Still for that read-out and setting: next, `CC(c1ccc2c(c1)OCCO2)N1CCN(c2ncc(C(=O)N3CCC(O)CC3)s2)CC1` (racemic) [Example 73, (2-(4-(1-(2,3-Dihydrobenzo[b][1,4]dioxin-6-yl)ethyl)piperazin-1-yl)thiazol-5-yl)(4-hydroxypiperidin-1-yl)methanone]: 5e-08 to 2e-07 M.

Turning to `CCc1cnc(N2CCN(C(C)c3ccc4nccnc4c3)CC2)nc1` (racemic) [Example 103, 6-(1-(4-(5-ethylpyrimidin-2-yl)piperazin-1-yl)ethyl)quinoxaline], the IC50 lay in the range of 5e-08 to 2e-07 M.

`CCCNc1ccnc(N2CCN(C(C)c3ccc4c(c3)OCO4)CC2)n1` (racemic) [Example 45, 2-(4-(1-(Benzo[d][1,3]dioxol-5-yl)ethyl)piperazin-1-yl)-N-propylpyrimidin-4-amine]: the IC50 was in the range of 2e-07 to 1e-06 M. The same measure, in the same setting: next, `CC(c1ccc2c(c1)OCO2)N1CCN(c2nnc(NC(=O)C3CC3)s2)CC1` (racemic) [Example 108, N-(5-(4-(1-(benzo[d][1,3]dioxol-5-yl)ethyl)piperazin-1-yl)-1,3,4-thiadiazol-2-yl)cyclo propanecarboxamide]: below 5e-08 M; `C[C@@H](c1ccc2c(c1)OCO2)N1CCN(c2nc3c(s2)CN(S(C)(=O)=O)CC3)CC1` [Example 193, (S)-2-(4-(1-(benzo[d][1,3]dioxol-5-yl)ethyl)piperazin-1-yl)-5-(methylsulfonyl)-4,5,6,7-tetrahydrothiazolo[5,4-c]pyridine]: below 5e-08 M; `C[C@@H](c1ccc2c(c1)OCO2)N1CCN(c2ccc(CO)cn2)CC1` [Example 185, (S)-(6-(4-(1-(benzo[d][1,3]dioxol-5-yl)ethyl)piperazin-1-yl)pyridin-3-yl)methanol]: below 5e-08 M. On the same count and under the same terms, with `CCOC(=O)c1cnc(N2CCN(C(C)c3ccc4c(c3)OCO4)CC2)nc1` (racemic) [Example 51, Ethyl 2-(4-(1-(benzo[d][1,3]dioxol-5-yl)ethyl)piperazin-1-yl)pyrimidine-5-carboxylate] the figure was 5e-08 to 2e-07 M. Still for that read-out and setting: with `CC(c1ccc2c(c1)OCO2)N1CCN(c2nc(C(=O)O)cs2)CC1` (racemic) [Example 18, 2-(4-(1-(Benzo[d][1,3]dioxol-5-yl)ethyl)piperazin-1-yl)thiazole-4-carboxylic acid] the figure was 5e-08 to 2e-07 M. For the compound `CC(=O)Nc1cnc(N2CCN(C(C)c3ccc4sc(C)nc4c3)CC2)nc1` (racemic) [Example 169, N-(2-(4-(1-(2-methylbenzo[d]thiazol-5-yl)ethyl)piperazin-1-yl)pyrimidin-5-yl)acetamide], the IC50 was below 5e-08 M. The same measure, in the same setting: next, `COc1cccc(N2CCN(C(C)c3ccc4c(c3)OCCO4)CC2)n1` (racemic) [Example 200]: 5e-08 to 2e-07 M. On the same count and under the same terms, next, `CC(=O)Nc1cnc(N2CCN(C(C)c3ccc4cc(Cl)cnc4c3)CC2)nc1` (racemic) [Example 125, N-(2-(4-(1-(3-chloroquinolin-7-yl)ethyl)piperazin-1-yl)pyrimidin-5-yl)acetamide]: 1e-06 to 1e-05 M; `CC(c1ccc2c(c1)OCO2)N1CCN(c2ncc(C(N)=O)s2)CC1` (racemic) [Example 48, 2-(4-(1-(Benzo[d](1,3)dioxol-5-yl)ethyl)piperazin-1-yl)thiazole-5-carboxamide]: below 5e-08 M. Still for that read-out and setting: next, `CC(c1ccc2c(c1)OCO2)N1CCN(c2ncc(CO)s2)CC1` (racemic) [Example 28, (2-(4-(1-(Benzo[d][1,3]dioxol-5-yl)ethyl)piperazin-1-yl)thiazol-5-yl)methanol]: 5e-08 to 2e-07 M. With `CNC(=O)c1csc(N2CCN(C(C)c3ccc4c(c3)OCO4)CC2)n1` (racemic) [Example 30, 2-(4-(1-(Benzo[d][1,3]dioxol-5-yl)ethyl)piperazin-1-yl)-N-methylthiazole-4-carboxamide], the IC50 is 5e-08 to 2e-07 M. The same measure, in the same setting: next, `CC(c1ccc2c(c1)OCO2)N1CCN(c2cc(Cl)ncn2)CC1` (racemic) [Example 24, 4-(4-(1-(Benzo[d][1,3]dioxol-5-yl)ethyl)piperazin-1-yl)-6-chloropyrimidine]: 5e-08 to 2e-07 M; `COc1cnc(N2CCN(C(C)c3ccc4nccnc4c3)CC2)nc1` (racemic) [Example 196]: 5e-08 to 2e-07 M; `C[C@@H](c1ccc2c(c1)OCO2)N1CCN(c2ccc(C(F)(F)F)cn2)CC1` [Example 166, (S)-1-(1-(benzo[d][1,3]dioxol-5-yl)ethyl)-4-(5-(trifluoromethyl)pyridin-2-yl)piperazine]: 5e-08 to 2e-07 M. Still for that read-out and setting: with `C[C@@H](c1ccc2c(c1)OCO2)N1CCN(c2ccc(C(=O)N(C)C)cn2)CC1` [Example 187, (S)-6-(4-(1-(benzo[d][1,3]dioxol-5-yl)ethyl)piperazin-1-yl)-N,N-dimethylnicotinamide] the figure was below 5e-08 M; with `Cc1ccnc(N2CCN(C(C)c3ccc4c(c3)OCO4)CC2)n1` (racemic) [Example 9, 2-(4-(1-(Benzo[d][1,3]dioxol-5-yl)ethyl)piperazin-1-yl)-4-methylpyrimidine], 2e-07 to 1e-06 M; with `CC(c1ccc2c(c1)OCO2)N1CCN(c2ncc(C(=O)N3CCOCC3)s2)CC1` (racemic) [Example 67, (2-(4-(1-(Benzo[d][1,3]dioxol-5-yl)ethyl)piperazin-1-yl)thiazol-5-yl)(morpholino)methanone], 5e-08 to 2e-07 M. On the same count and under the same terms, with `C[C@@H](c1ccc2c(c1)OCO2)N1CCN(c2ccc(Br)cn2)CC1` [Example 191, (S)-1-(1-(benzo[d][1,3]dioxol-5-yl)ethyl)-4-(5-bromopyridin-2-yl)piperazine] the figure was 5e-08 to 2e-07 M. As to `Cc1cccc(N2CCN(C(C)c3ccc4c(c3)OCO4)CC2)n1` (racemic) [Example 21, 1-(1-(Benzo[d][1,3]dioxol-5-yl)ethyl)-4-(6-methylpyridin-2-yl)piperazine], the IC50 was 2e-07 to 1e-06 M.

As for `CC(=O)Nc1cnc(N2CCN(C(C)c3ccc4nonc4c3)CC2)nc1` (racemic) [Example 121, N-(2-(4-(1-(benzo[c][1,2,5]oxadiazol-5-yl)ethyl)piperazin-1-yl)pyrimidin-5-yl)acetamide], the IC50 was 1e-06 to 1e-05 M.

As to `CC(c1ccc2c(c1)OCO2)N1CCN(c2nc3c(s2)C(=O)NCC3)CC1` (racemic) [Example 148, 2-(4-(1-(benzo[d][1,3]dioxol-5-yl)ethyl)piperazin-1-yl)-6,7-dihydrothiazolo[5,4-c]pyridin-4(5H)-one], the IC50 lay in the range of 5e-08 to 2e-07 M.

For `Cc1cnc(N2CCN(C(C)c3ccc4nccnc4c3)CC2)nc1` (racemic) [Example 102, 6-(1-(4-(5-Methylpyrimidin-2-yl)piperazin-1-yl)ethyl)quinoxaline], the IC50 was 5e-08 to 2e-07 M.

`C[C@@H](c1ccc2c(c1)OCO2)N1CCN(c2ncc(F)cn2)CC1` [Example 173, (S)-2-(4-(1-(benzo[d][1,3]dioxol-5-yl)ethyl)piperazin-1-yl)-5-fluoropyrimidine]: the IC50 was below 5e-08 M.

Staying with this test, now noted: measured according to Example B01.
Take `CC(=O)Nc1nnc(N2CCN(C(C)c3ccc4scnc4c3)CC2)s1` (racemic) [Example 114, N-(5-(4-(1-(benzo[d]thiazol-5-yl)ethyl)piperazin-1-yl)-1,3,4-thiadiazol-2-yl)acetamide]: the “OGA inhibitor activity (in words)” value is listed as “very potent OGA inhibitors”. Same read-out and setting: next, `C[C@@H](c1ccc2c(c1)OCO2)N1CCN(c2ncc(C(=O)N(C)C)cn2)CC1` [Example 137, (S)-2-(4-(1-(benzo[d][1,3]dioxol-5-yl)ethyl)piperazin-1-yl)-N,N-dimethylpyrimidine-5-carboxamide]: “very potent OGA inhibitors”. On the same count and under the same terms, with `CC(c1ccc2c(c1)OCO2)N1CCN(c2ncc(C(N)=O)s2)CC1` (racemic) [Example 48, 2-(4-(1-(Benzo[d](1,3)dioxol-5-yl)ethyl)piperazin-1-yl)thiazole-5-carboxamide] the entry was “very potent OGA inhibitors”; with `CC(=O)Nc1cnc(N2CCN(C(C)c3ccc4c(c3)OCO4)CC2)nc1` (racemic) [Example 72, N-(2-(4-(1-(benzo[d][1,3]dioxol-5-yl)ethyl)piperazin-1-yl)pyrimidin-5-yl)acetamide], “very potent OGA inhibitors”. On the same count and under the same terms, next, `C[C@@H](c1ccc2c(c1)OCO2)N1CCN(c2ncc(F)cn2)CC1` [Example 173, (S)-2-(4-(1-(benzo[d][1,3]dioxol-5-yl)ethyl)piperazin-1-yl)-5-fluoropyrimidine]: “very potent OGA inhibitors”.
